From patent US6265578A, “Pyrimidine-2,4,6-triones” (Hoffmann-La Roche Inc., priority 2000, dated 2001)
Like-named read-outs stand apart in the source and are kept apart here.

Columns and labels:
Type in all cases: biochemical
[1] = molecular target: T1, gelatinase-B (human neutrophil gelatinase, 95 kDa gelatinase) (Homo sapiens, UniProt P14780); assay: IC50 for inhibition of gelatinase-B (human neutrophil gelatinase, 95 kDa), fluorogenic peptide cleavage assay (GelB)
T1 construct: made in house; host or cells: NSO-cells (purified from conditioned media)
T1 sequence (P14780 107-707 limits assumed): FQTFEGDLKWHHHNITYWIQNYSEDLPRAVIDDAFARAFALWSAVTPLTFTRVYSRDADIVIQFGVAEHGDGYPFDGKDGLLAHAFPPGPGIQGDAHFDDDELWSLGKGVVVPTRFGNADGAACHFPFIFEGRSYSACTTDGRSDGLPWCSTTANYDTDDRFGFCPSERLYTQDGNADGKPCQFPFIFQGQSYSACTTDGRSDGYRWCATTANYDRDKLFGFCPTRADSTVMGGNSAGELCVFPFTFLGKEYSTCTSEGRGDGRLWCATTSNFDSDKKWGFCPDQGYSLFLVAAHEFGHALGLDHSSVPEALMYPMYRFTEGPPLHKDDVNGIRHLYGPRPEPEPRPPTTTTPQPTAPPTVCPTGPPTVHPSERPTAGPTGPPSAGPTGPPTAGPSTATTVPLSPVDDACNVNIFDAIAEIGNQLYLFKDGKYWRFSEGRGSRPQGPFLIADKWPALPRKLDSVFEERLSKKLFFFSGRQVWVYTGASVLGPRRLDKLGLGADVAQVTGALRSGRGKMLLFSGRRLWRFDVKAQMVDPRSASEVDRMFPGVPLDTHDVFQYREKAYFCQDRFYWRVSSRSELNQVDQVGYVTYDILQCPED
Method: For gelatinase-A and gelatinase-B, the buffer was pH 7.5, 50 mM TrisHCl, 200 mM NaCl, 5 mM CaCl2, 20 μM ZnCl2, 0.05% (wt/v) Brij-35. […] The final substrate concentration in all cases 10 μM. The approximate concentrations for the enzymes were: gelatinase-A, 0.8 nM; gelatinase-B, 0.5 nM; collagenase-3, 0.4 nM; matrilysin, 10 nM. To perform the peptide cleavage assay, the vessel containing buffer and compound of formula I were pre-equilibrated at 37° C., then the reaction initiated by successive addition of concentrated stocks of enzyme and substrate, and incubation at 37° C. was continued. At successive time points between 30 and 120 minutes, 50 μL aliquots of the assays were pulled and the enzymatic reaction stopped by addition to 150 μL of 30 mM EDTA (pH 7.4) in the well of a black, flat bottom microtiter plate. The extent of substrate conversion was determined by reading the fluorescence of the stopped reactions (excitation wavelength: 355 nm; emission wavelength: 460 nM).
% inh[I]=100(1-rate[I]/ratePC)
(§2) % inh[I]=percent inhibition at inhibitor concentration [I]
(§3) rate[I]=rate at inhibitor concentration [I]
ratePC=rate of positive control […]

[2] = molecular target: T2, gelatinase-A (human 72 kDa gelatinase) (Homo sapiens, UniProt P08253); assay: IC50 for inhibition of gelatinase-A (human 72 kDa gelatinase), fluorogenic peptide cleavage assay (GelA)
T2 construct: endogenous in cells; host or cells: fetal lung fibroblasts (purified from conditioned media)
T2 sequence (P08253 110-660): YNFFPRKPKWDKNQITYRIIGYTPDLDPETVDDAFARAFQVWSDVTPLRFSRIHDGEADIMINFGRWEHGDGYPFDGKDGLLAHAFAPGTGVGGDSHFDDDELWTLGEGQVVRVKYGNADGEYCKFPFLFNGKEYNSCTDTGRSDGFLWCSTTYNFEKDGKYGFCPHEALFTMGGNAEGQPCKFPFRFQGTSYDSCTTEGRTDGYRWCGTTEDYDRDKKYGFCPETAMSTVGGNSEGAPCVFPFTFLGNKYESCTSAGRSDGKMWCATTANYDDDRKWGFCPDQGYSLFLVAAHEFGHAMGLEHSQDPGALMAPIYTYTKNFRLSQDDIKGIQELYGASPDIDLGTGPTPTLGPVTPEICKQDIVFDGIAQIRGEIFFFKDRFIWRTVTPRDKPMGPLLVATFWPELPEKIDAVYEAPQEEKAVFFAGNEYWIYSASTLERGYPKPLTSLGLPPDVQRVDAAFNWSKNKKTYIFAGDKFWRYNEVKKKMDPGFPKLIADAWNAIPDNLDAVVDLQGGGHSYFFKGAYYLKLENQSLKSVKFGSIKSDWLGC
Method: (§1) Human 72 kDa gelatinase was purified from the conditioned media of fetal lung fibroblasts according to known methods. The enzyme was stored in the pro-form at -80° C. and activated prior to use by treatment with 1 mM aminophenyl mercuriacetate (APMA) for 1 hour at 37° C., then dialyzed against reaction buffer before use. Human neutrophil gelatinase (95 kDa gelatinase) was purified from conditioned media of NSO-cells according to known methods. This enzyme was likewise stored in the zymogen form at -80° C. It was activated by treatment with trypsin (5 μg/mL) for 1 hour at 37° C., followed by addition of bovine pancreatic trypsin inhibitor to 50 μg/mL. Human matrilysin was obtained from a bacterial expression system as a ubiquitin fusion construct Welch, A. R., Holman, C. M., Browner, M. F., Gehring, M. R., Kan, C.-C., & Van Wart, H. E. (1995) Arch. Biochem. Biophys. 324, 59-64. The mature form of matrilysin was purified following activation with 1 mM APMA (1 hour, 37° C.) and the active enzyme stored at -80° C. The catalytic domain of human collagenase-3 was obtained in a manner analogous to that for matrilysin. The final form of collagenase-3 used for these studies consisted of the residues Tyr104 -Asn274 from the full length collagenase sequence. The catalytic domain of human stromelysin-1 was produced via E. coli expression and purification according to known methods; the activated, catalytic domain was stored at -80° C.
The assay methods utilized the fluorogenic substrate: Dnp-Pro-Cha-Gly-Cys(Me)-His-Ala-Lys(NMA)-NH2. (Dnp=dinitro phenyl; Cha=cyclohexylalanine; Cys(Me)=S-methyl cysteine, Lys(NMA)=N^ε-methyl-anthranoyl-1-lysine). Stock solutions were prepared in DMSO. Stock solutions of compounds of formula I (inhibitor) were also prepared in DMSO.
For gelatinase-A and gelatinase-B, the buffer was pH 7.5, 50 mM TrisHCl, 200 mM NaCl, 5 mM CaCl2, 20 μM ZnCl2, 0.05% (wt/v) Brij-35. For matrilysin and the catalytic domain of collagenase-3, the buffer composition was pH 7.5, 50 mM Hepes, 200 mM NaCl, 5 mM CaCl2, 20 μM ZnCl2, 0.05% (wt/v) Brij-35. The final substrate concentration in all cases 10 μM. The approximate concentrations for the enzymes were: gelatinase-A, 0.8 nM; gelatinase-B, 0.5 nM; collagenase-3, 0.4 nM; matrilysin, 10 nM. […] The extent of substrate conversion was determined by reading the fluorescence of the stopped reactions (excitation wavelength: 355 nm; emission wavelength: […]).
A rate at each inhibitor concentration was obtained from a linear least squares fit to the fluorescence time course. The percent inhibition at inhibitor concentration [I] was calculated as: […]

[3] = molecular target: T3, human collagenase-3 (catalytic domain) (Homo sapiens, UniProt P45452); assay: IC50 for inhibition of the catalytic domain of human collagenase-3, fluorogenic peptide cleavage assay (Coll-3)
T3 construct: ubiquitin (cleaved yes); made in house; host or cells: bacterial expression system (analogous to matrilysin)
Method: Human matrilysin was obtained from a bacterial expression system as a ubiquitin fusion construct Welch, A. R., Holman, C. […] The mature form of matrilysin was purified following activation with 1 mM APMA (1 hour, 37° C.) and the active enzyme stored at -80° C. The catalytic domain of human collagenase-3 was obtained in a manner analogous to that for matrilysin. The final form of collagenase-3 used for these studies consisted of the residues Tyr104 -Asn274 from the full length collagenase sequence.
For matrilysin and the catalytic domain of collagenase-3, the buffer composition was pH 7.5, 50 mM Hepes, 200 mM NaCl, 5 mM CaCl2, 20 μM ZnCl2, 0.05% (wt/v) Brij-35. The final substrate concentration in all cases 10 μM. The approximate concentrations for the enzymes were: gelatinase-A, 0.8 nM; gelatinase-B, 0.5 nM; collagenase-3, 0.4 nM; matrilysin, 10 nM. To perform the peptide cleavage assay, the vessel containing buffer and compound of formula I were pre-equilibrated at 37° C., then the reaction initiated by successive addition of concentrated stocks of enzyme and substrate, and incubation at 37° C. was continued. At successive time points between 30 and 120 minutes, 50 μL aliquots of the assays were pulled and the enzymatic reaction stopped by addition to 150 μL of 30 mM EDTA (pH 7.4) in the well of a black, flat bottom microtiter plate.
% inh[I]=100(1-rate[I]/ratePC)
as §2, §3
ratePC=rate of positive control […]

[4] = system: human stromelysin-1 (catalytic domain); assay: IC50 for inhibition of the catalytic domain of human stromelysin-1, fluorogenic substrate assay (Strom-1); conditions: pH 6.5, ambient temperature, 60 min, 10 μM substrate, 10 nM enzyme
Method: as §1
The assay methods utilized the fluorogenic substrate: Dnp-Pro-Cha-Gly-Cys(Me)-His-Ala-Lys(NMA)-NH2. […]
Measurements for stromelysin-1: the catalytic domain of stromelysin-1 was tested using the same substrate but with a modified protocol. […] The reaction was started by addition of an aliquot of enzyme stock and the generated fluorescence was read directly after 60 minutes. […] The % inh[I] was calculated as: […]
where Fluor[I]=corrected fluorescence at 60 minutes observed for inhibitor concentration [I]
FluorPC=corrected fluorescence at 60 minutes observed for the positive control […]

[5] = catalytic domain, pH 7.5, 37° C., 10 μM substrate, 0.4 nM enzyme, 5% DMSO, read-out: IC50 Coll-3

Compound | IC50 [1] [nM] | IC50 [2] [nM] | IC50 [3] [nM] | IC50 ([4]; value in nM) [nM] | IC50 ([1]; pH 7.5, 37° C., 10 μM substrate, 0.5 nM enzyme, 5% DMSO, read-out: IC50 GelB) [nM] | IC50 [3, 5] [nM] | IC50 [4] [nM] | IC50 ([2]; pH 7.5, 37° C., 10 μM substrate, 0.8 nM enzyme, 5% DMSO, read-out: IC50 GelA) [nM]
O=C1NC(=O)C(COCc2ccccc2)(c2ccc(Oc3ccccc3)cc2)C(=O)N1 [C, 5-benzyloxymethyl-5-(4-phenoxyphenyl)pyrimidine-2,4,6-trione] | 23 | 26 | 47 | 930 |  |  |  | 
CC1(c2ccc(Oc3ccccc3)cc2)C(=O)NC(=O)NC1=O [A, 5-methyl-5-(4-phenoxyphenyl)pyrimidine-2,4,6-trione] |  | 80 |  |  | 52 | 65 | 2000 | 
O=C1NC(=O)C(CCO)(c2ccc(Oc3ccccc3)cc2)C(=O)N1 [D, 5-(2-hydroxyethyl)-5-(4-phenoxyphenyl)pyrimidine-2,4,6-trione] |  |  |  |  |  |  |  | 59
CCCCCCC1(c2ccc(Oc3ccccc3)cc2)C(=O)NC(=O)NC1=O [B, 5-hexyl-5-(4-phenoxyphenyl)pyrimidine-2,4,6-trione] | 50 | 67 |  |  |  | 78 | 2000 | 
